# Data published in ChEMBL document CHEMBL1770054, “Enediol mimics as inhibitors of the D-arabinose 5-phosphate isomerase (KdsD) from Francisella tularensis” (Bioorg Med Chem Lett, 2011).
# Where “and” joins values, the source holds several entries; their conditions need not be identical. Identical values can stand only once.
# Tests used:
# L6 = assay: Cytotoxicity against rat L6 cells; format: cell-based
# [1] = target: T1, Arabinose 5-phosphate isomerase KdsD (Francisella tularensis subsp. tularensis (strain SCHU S4 / Schu 4), UniProt Q5NGP7)
# T1 sequence (Q5NGP7 whole entry): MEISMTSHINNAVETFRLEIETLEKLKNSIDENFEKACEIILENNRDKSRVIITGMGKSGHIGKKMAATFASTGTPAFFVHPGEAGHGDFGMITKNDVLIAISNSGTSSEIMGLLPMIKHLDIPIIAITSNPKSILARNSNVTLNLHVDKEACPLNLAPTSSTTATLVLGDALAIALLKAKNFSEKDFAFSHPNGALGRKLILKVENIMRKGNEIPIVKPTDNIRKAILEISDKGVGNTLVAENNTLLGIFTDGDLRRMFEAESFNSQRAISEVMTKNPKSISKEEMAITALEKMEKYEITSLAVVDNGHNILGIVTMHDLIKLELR
# Trypanosoma brucei = assay: Antiparasitic activity against Trypanosoma brucei infected in rat L6 cells; format: functional
# [2] = target: T2, Ribose-5-phosphate isomerase B (Mycobacterium tuberculosis, UniProt P9WKD7); assay: Inhibition of Mycobacterium tuberculosis rpiB
# T2 sequence (P9WKD7 whole entry): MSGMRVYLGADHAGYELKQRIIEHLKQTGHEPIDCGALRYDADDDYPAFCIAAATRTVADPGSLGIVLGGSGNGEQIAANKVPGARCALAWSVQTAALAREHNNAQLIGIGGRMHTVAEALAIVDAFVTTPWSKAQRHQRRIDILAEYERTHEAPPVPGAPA
# [3] = Inhibition of Escherichia coli arabinose phosphate isomerase
# [4] = Inhibition of xylose isomerase
# [5] = target: Glucose-6-phosphate isomerase (Oryctolagus cuniculus, UniProt Q9N1E2); assay: Inhibition of rabbit cytosolic phosphoglucose isomerase
# [6] = target: Triosephosphate isomerase (Homo sapiens, UniProt P60174); assay: Inhibition of Triosephosphate isomerase
# Triosephosphate isomerase, sequence (P60174 whole entry): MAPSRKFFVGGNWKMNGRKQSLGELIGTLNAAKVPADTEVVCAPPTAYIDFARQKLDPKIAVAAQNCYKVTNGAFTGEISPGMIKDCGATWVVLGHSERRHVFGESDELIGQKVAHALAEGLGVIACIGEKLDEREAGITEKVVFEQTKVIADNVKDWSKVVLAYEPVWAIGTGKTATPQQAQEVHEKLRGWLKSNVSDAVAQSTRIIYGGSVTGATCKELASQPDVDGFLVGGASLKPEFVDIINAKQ
compound,measurement,setting,value
CC(=O)O[C@H](COP(=O)(O)O)[C@@H](OC(C)=O)C(=O)NO,Activity,L6,229 µM
same,IC50,[1],7 µM
same,Activity,Trypanosoma brucei,229 µM
O=C(NO)[C@H](O)[C@H](O)COP(=O)(O)O,IC50,[1],35 µM
same,Ki,[2],400 µM and 57 µM
O=C(O)[C@H](O)[C@H](O)COP(=O)(O)O,IC50,[3],220 µM
O=C(NO)[C@H](O)[C@H](O)CO,Ki,[4],0.1 µM
O=C(NO)[C@@H](O)[C@H](O)[C@H](O)COP(=O)(O)O,Ki,[5],0.1 µM
NC(=O)[C@H](O)[C@H](O)COP(=O)(O)O,IC50,[1],10 µM
same,Ki,[2],> 30000 µM
CC1(C)O[C@H](COP(=O)(O)O)[C@H](C(=O)NO)O1,IC50,[1],3000 µM
O=C(COP(=O)(O)O)NO [PHOSPHOGLYCOLOHYDROXAMATE],Ki,[6],4 µM
